Tests used:
Type in all cases: cell-based
[1] = test system: fibroblasts; test: Mechanical alteration of fibroblasts (cyclic stretching of coated polypropylene meshes); conditions: cyclic stretching, day 7, day 21, 8 weeks, compared with native FA; further: key: 0: not superior to native FA (control); +: Superior to native FA; ++: superior to both; +++: outstanding effect
From the text: In order to simulate the effects of chronic shear forces on a healing wound, an in vitro model was established. A flat balloon was placed on the bottom of a Petri dish. A silicone sheet was placed above and sealed with the side of the Petri dish. Then a 3 mm agar layer was casted on top of the sheet. Commercially available polypropylene meshes for hernia repair (microporous mesh, a low-weight and macroporous mesh with absorbable polyglactin filaments, and a heavy-weight and microporous mesh) were placed on the agar plates and fixed at 4 points at the side of the Petri dish. This setting enabled stretching of the meshes by filling the balloons with air, which was performed at 10-second intervals using an automated pumping device. The model can be used to evaluate the effect of three-dimensional (3D) shear forces on cell growth during cell cultivation. Preincubated suspensions of fibroblasts (1.5×10(5) cells) in a culture medium (10% FCS) were added to the culture dishes and allowed to grow for 48 hours. Cyclic stretching was started at day 3. Histological analysis was performed from the central portions of the meshes at day 7, at day 21, and after 8 weeks. The scaffolds were detached from the culture plate and carefully rinsed. Then, they were cut into pieces, casted, and further processed for standard histology and immunohistology. Care was taken to achieve a cutting plane that was vertical to the surface plane of the meshes. Histological analysis evaluated the cellularity, the content of extra cellular matrix (ECM), and the magnitude of protein synthesis. Meshes were dip-coated with native and nitro fatty acids or left blank in the same manner as in example 1. The uncoated meshes served as controls.

[2] = test system: canine cutaneous mastocytoma cells; test: Toxin response of mast cells (mastoparan, Streptolysin O, UVB); conditions: preincubation 10 and 100 μmol, compared with native FA
Procedure: In order to determine membrane stabilizing and anticytotoxic properties of nitrated fatty acids, an in vitro model utilizing canine cutaneous mastocytoma cells was chosen. Cells were cultured according to standard procedure. Cytotoxic effects were quantified by measuring not only by Ca^2+ influx, histamine, and TNFα release, but also by using the MTT assay. Cell suspensions were incubated with 0.9% saline, one of the nitrocarboxylic acids as listed in table 1 or the respective native fatty acid as to achieve a final concentration of 10 and 100 μmol which was given to the medium 15 min before toxin application.
Mastoparan suspended in a buffer solution was added to the preincubated mast cell suspensions to achieve a final concentration of 10 or 30 μmol, respectively. Measurements were performed after 1 hour incubation time. […] Preincubation of mast cells with nitrated fatty acids reduced the effects on Ca^2+ influx, histamine release, and apoptosis induction in a dose-dependent manner, with an almost complete absence of apoptosis at a concentration of 100 μmol.
Streptolysin O was given to preincubated suspensions to achieve a final concentration of 500 ng/ml. Measurements were performed after 2 hours. Releases of histamine and TNFα in the suspensions were measured. After saline preincubation, a significant release of histamine and TNFα was observed.
Cell plates were exposed to a single dose (250 mJ/cm2) of UVB using a lamp (Saalmann, Herford, Germany) emitting most of its energy within the UVB range (295 to 315 nm). Tryptase levels in the supernatants were determined after 30 minutes, and concentrations of TNFα after 60 minutes. After preincubation with saline, there was a marked increase of tryptase. Preincubation with native fatty acids led to a dose-dependent reduction of tryptase release, which was significant at the lower irradiation dose but not after exposure to a high irradiation dose. […] For all nitrated fatty acids that were used the results were mostly inside the same range. Relative differences can be represented as follows: […]

[3] = test system: Human peripheral blood mononuclear cells (PBMCs); test: Adhesion of serum proteins and monocyte activation induced by coated silicone; conditions: dip-coated silicone, PBMCs 3 days; compared with native FA; further: key: 0: not superior to native FA (control); +: Superior to native FA; ++: superior to both; +++: outstanding effect
Procedure: In order to determine the effect of coating implant materials with nitro fatty acids to reduce adsorption of adhesion molecules and monocyte activation, sterile silicone sheets were out in small pieces and coated with respective nirocarboxylic acid and the corresponding native fatty acids by dip coating. Uncoated silicone pieces served as controls. For each fatty acid two sets of silicone pieces were bathed in freshly drawn human serum for 1 hour at 37° C., and another two sets were bathed in saline solutions. One set of both coated and uncoated pieces was analyzed immediately for adhesion proteins and the other set was placed in 96-well plates after rinsing the silicone pieces. Human peripheral blood mononuclear cells (PBMCs), isolated from three healthy subjects, were added to each well. Wells were incubated for 3 days under standard conditions. Culture supernatants were assayed for IL-1beta, IL-6, IL-8, and chemoattractant protein 1 (MCP-1) levels at the start and end of experiments.
Before analyzing the silicone pieces for protein adsorption, they were bathed in saline for 5 minutes. Thereafter, one side was rinsed with saline as performed for both sides in the set used for culturing. There was marked adsorption of fibrinogen and […] C5b-9 on the uncoated silicone. […] No protein was found on the surface of the nitro fatty acid-coated sample that was rinsed, thus, indicating the weak adherence of serum proteins.

[4] = test system: Cardiomyocytes; test: TGF-β1-inducible formation of extracellular matrix in cardiomyocytes under shear stress; conditions: 10-100 μmol, shear stress up to 100 dyn/cm^2; compared with native FA; further: key: 0: not superior to native FA (control); +: Superior to native FA; ++: superior to both; +++: outstanding effect
Procedure: Characterizing features of the fibrous remodelling in the heart are accentuated expression and deposition of extracellular matrix proteins (ECM). This has been attributed to increased mechanical forces via autocrine release of transforming growth factor-beta (TGF-beta). […] An established cell culture model was used to investigate the effect of shear stress on cardiomyocytes. Cardiomyocytes were cultured and transferred to a matrigel substrate. Plates with confluenced cells were placed into a shear force injury device (SFID). The SFID design is based on a cone-and-plate construction which is a well-defined rheological model in which a homogenously distributed laminar flow over the surface of the cells is generated by a rotating cone. The conical surface is positioned above a stationary flat plate and the fluid medium between these two surfaces is set in motion by rotating the cone to create a uniform level of fluid shear stress throughout the entire surface of the cells cultured on the coverslips.
A peak shear stress of 100 dyn/cm^2 could be applied without significant cell detachment enabling a maximum injury severity of 46%. Cells were exposed to FCS 1% without or with nitro-fatty acid, and the corresponding native fatty acid in a dosage range between 10 μmol and 100 μmol, 10 seconds before shear force application. Shear force peaks up to 100 dyn/cm^2 with a duration of 30 msec each with a repetition frequency of 60/minute were applied for 5, 10, 30 and 60 minutes. Thereafter the cell plates were washed and placed in FCS 1% for 24 hrs. The supernatant of the shear force investigation as well as that of the following culture phase was analysed. It could be shown that TGF-beta and ECM proteins (collagen I, fibronectin, laminin, elastin) increased after treatment in the control groups.

Molecule	Relative effect on fibroblasts under mechanical alteration [1]	Relative differences: effect on toxin response of mast cells [2]	Relative effect on serum protein adhesion and monocyte activation [3]	Relative efficacy to suppress TGF-beta and ECM proteins in cardiomyocytes [4]
9,10-nitro-cis-oleic acid [compound 10]	++	+++	++	++
CCCCC/C=C(/C/C=C\C/C=C\C/C=C\C/C=C\CCC(=O)O)[N+](=O)[O-] [compound 5, 16-nitro-all-cis-4,7,10,13,16-docosapentaenoic acid]	++	+	+	+

Source: US20130039956A1, “USE OF NITROCARBOXYLIC ACIDS FOR THE TREATMENT, DIAGNOSIS AND PROPHYLAXIS OF AGGRESSIVE HEALING PATTERNS” (priority 2010, published 2013)
